Source: ChEMBL document CHEMBL5365500, “Development and Antibacterial Properties of 4-[4-(Anilinomethyl)-3-phenylpyrazol-1-yl]benzoic Acid Derivatives as Fatty Acid Biosynthesis Inhibitors” (J Med Chem, 2023)
Values after ≈ are worked out from the molar mass of the structure shown. Active and inactive are the calls of the source. The rule behind the calls is not given here.

Assays:
Cell membrane [1] = assay: Induction of membrane permeability in Staphylococcus aureus ATCC 700699 assessed as increase in fluorescence intensity at 2 times of MIC incubated for 15 mins measured for 1 hr by propidium iodide/real time fluorescence based flow cytometry Rvb = 3.5); assay type: subcellular; settings: time 75.0 min
Staphylococcus aureus [2] = assay: Antimicrobial activity against clinical isolate Staphylococcus aureus Smu21 assessed as inhibition of growth measured after 20 to 24 hrs incubation by CLSI method; assay type: functional; settings: time 20-24 hrs
[3] = Toxicity in Caenorhabditis elegans AU37 assessed as survival at 4 ug/ml measured for 4 days; settings: 96 h, dose 4 µg/ml, time 4 day
Staphylococcus aureus [4] = assay: In vivo antimicrobial activity against Staphylococcus aureus UAMS-1 infected in Caenorhabditis elegans AU37 nematodes assessed as viability of nematodes incubated for 5 days by susceptibility test; assay type: functional; settings: UAMS-1, 120 h, time 5 day
Staphylococcus aureus [5] = assay: Antimicrobial activity against methicillin-resistant Staphylococcus aureus USA300 infected in liquid-based Caenorhabditis elegans co-infection model assessed as rescue of worms by measuring viability at 1 ug/ml incubated for 5 days (reference value: 20%); assay type: functional; settings: dose 1 µg/ml; time 5 day
Bacillus subtilis = assay: Antimicrobial activity against antibiotic-resistant Bacillus subtilis ATCC 6623 assessed as inhibition of visible growth measured after 20 to 24 hrs incubation by CLSI method; assay type: functional; settings: time 20-24 hrs
Cell membrane [6] = assay: Induction of membrane permeability in Staphylococcus aureus ATCC 700699 assessed as increase in fluorescence at 8 times of MIC incubated for 15 mins measured for 1 hr by propidium iodide/real time fluorescence based flow cytometry; assay type: subcellular
[7] = Toxicity in Caenorhabditis elegans AU37 assessed as survival at 20 ug/ml measured for 4 days; settings: at 20 µg/mL, time 4 day
Cell membrane [8] = assay: Induction of membrane permeability in Staphylococcus aureus ATCC 700699 assessed as increase in fluorescence intensity at 4 times of MIC incubated for 15 mins measured for 1 hr by propidium iodide/real time fluorescence based flow cytometry Rvb = 3.5); settings: time 75.0 min
Erythrocyte [9] = assay: Hemolytic activity in sheep red blood cells assessed as hemolysis at 64 ug/ml incubated for 30 mins relative to control; assay type: toxicity, cell-based, Ovis aries; settings: 0.5 h, at 64 µg/mL
Cell membrane [10] = assay: Induction of membrane permeability in Staphylococcus aureus ATCC 700699 assessed as increase in fluorescence at 0.5 to 2 times of MIC incubated for 15 mins measured for 1 hr by propidium iodide/real time fluorescence based flow cytometry; assay type: subcellular; settings: time 75.0 min
Staphylococcus aureus [11] = assay: Antimicrobial activity against antibiotic-resistant Staphylococcus aureus ATCC BAA-2312 assessed as inhibition of visible growth measured after 20 to 24 hrs incubation by CLSI method; assay type: functional; settings: time 20-24 hrs
Staphylococcus aureus [12] = assay: Antimicrobial activity against Staphylococcus aureus ATCC 25923 assessed as inhibition of biofilm formation by measuring prevention of turbidity after 24 hrs incubation by Real-time monitoring method; assay type: functional
Staphylococcus aureus [13] = assay: Antimicrobial activity against Staphylococcus aureus UAB159 assessed as inhibition of growth measured after 20 to 24 hrs incubation by CLSI method; assay type: functional; settings: time 20-24 hrs
Staphylococcus aureus [14] = assay: Antimicrobial activity against clinical isolate Staphylococcus aureus Smu81 assessed as inhibition of growth measured after 20 to 24 hrs incubation by CLSI method; assay type: functional; settings: time 20-24 hrs
Staphylococcus aureus [15] = assay: Antimicrobial activity against methicilline-resistant Staphylococcus aureus ATCC 700699 persisters assessed as bacterial killing at 32 time of MIC concentration measured for every 2 hrs upto 8 hrs by Persisters time course assay; assay type: functional, organism-based
Cell membrane [16] = assay: Induction of membrane permeability in Staphylococcus aureus ATCC 700699 assessed as increase in fluorescence intensity at 1 times of MIC incubated for 15 mins measured for 1 hr by propidium iodide/real time fluorescence based flow cytometry Rvb = 3.5); settings: time 75.0 min
Staphylococcus aureus [17] = assay: Antimicrobial activity against antibiotic-resistant Staphylococcus aureus ATCC 33592 assessed as inhibition of visible growth measured after 20 to 24 hrs incubation by CLSI method; assay type: functional; settings: time 20-24 hrs
Staphylococcus aureus [18] = assay: Bactericidal activity in antibiotic-resistant Staphylococcus aureus ATCC 700699 assessed as reduction in viable cell count at 4 times of MIC measured upto 24 hrs by time kill assay; assay type: functional, organism-based
Staphylococcus aureus [19] = assay: Antimicrobial activity against antibiotic-resistant Staphylococcus aureus ATCC 33591 assessed as inhibition of visible growth measured after 20 to 24 hrs incubation by CLSI method; assay type: functional; settings: time 20-24 hrs
Erythrocyte [20] = assay: Hemolytic activity in sheep red blood cells assessed as hemolysis at 16 to 32 ug/ml incubated for 30 mins relative to control; assay type: toxicity, cell-based, Ovis aries; settings: 0.5 h, dose 16-32 µg/ml
Staphylococcus aureus [21] = assay: In vivo antimicrobial activity against Staphylococcus aureus USA300 infected in Caenorhabditis elegans AU37 nematodes assessed as viability of nematodes incubated for 5 days by susceptibility test; assay type: functional; settings: USA300, 120 h, time 5 day
Staphylococcus aureus [22] = assay: Antimicrobial activity against methicillin-resistant Staphylococcus aureus USA300 infected in liquid-based Caenorhabditis elegans co-infection model assessed as rescue of worms by measuring viability at 4 ug/ml incubated for 5 days (reference value: 20%); assay type: functional; settings: dose 4 µg/ml; time 5 day
Enterococcus faecalis [23] = assay: Antimicrobial activity against antibiotic-susceptible Enterococcus faecalis ATCC 29212 assessed as inhibition of biofilm formation by measuring prevention of turbidity after 24 hrs incubation by Real-time monitoring method; assay type: functional
Staphylococcus aureus [24] = assay: In vivo antimicrobial activity against Staphylococcus aureus Newman infected in Caenorhabditis elegans AU37 nematodes assessed as viability of nematodes incubated for 5 days by susceptibility test; assay type: functional; settings: 120 h, time 5 day
Enterococcus faecalis [25] = assay: Antimicrobial activity against Enterococcus faecalis ATCC 29212 assessed as inhibition of biofilm formation by measuring prevention of turbidity after 24 hrs incubation by Real-time monitoring method; assay type: functional
Staphylococcus aureus [26] = assay: Antimicrobial activity against clinical isolate Staphylococcus aureus Smu9 assessed as inhibition of growth measured after 20 to 24 hrs incubation by CLSI method; assay type: functional; settings: time 20-24 hrs
Staphylococcus aureus [27] = assay: Antimicrobial activity against methicillin-resistant Staphylococcus aureus USA300 infected in liquid-based Caenorhabditis elegans co-infection model assessed as rescue of worms by measuring viability at 2 ug/ml incubated for 5 days (reference value: 20%); assay type: functional; settings: dose 2 µg/ml; time 5 day
[28] = tested on: Panel NCI-60 (60 carcinoma cell lines); assay: Cytotoxicity against human panel NCI-60 (60 carcinoma cell lines)cells assessed as cell viability at 10 uM measured after 24 hrs by resazurin assay; assay type: functional, cell-based
Enterococcus faecium = assay: Antimicrobial activity against Enterococcus faecium […] assessed as inhibition of biofilm formation after 24 hrs incubation by Real-time monitoring method; assay type: functional
Cell membrane [29] = assay: Induction of membrane permeability in Staphylococcus aureus ATCC 700699 assessed as increase in fluorescence at 4 times of MIC incubated for 15 mins measured for 1 hr by propidium iodide/real time fluorescence based flow cytometry; assay type: subcellular; settings: time 75.0 min

For `O=C(O)c1ccc(-n2cc(CNc3ccc(Cl)c(C(F)(F)F)c3)c(-c3cccc(F)c3)n2)cc1`, the Activity (Cell membrane [1]) was 32.3%, the MIC (Staphylococcus aureus [2]) was 4 µg/mL (≈ 8.17 µM) and the Activity [3] was “Non-Toxic”. The MIC (Staphylococcus aureus [4]) was 1 µg/mL (≈ 2.04 µM), the Activity (Staphylococcus aureus [5]) was 90% and the MIC (Bacillus subtilis) was 0.5 µg/mL (≈ 1.02 µM). For the same compound, the Activity (Cell membrane [6]) was “inactive”, the survival at 96 h, 20 ug/ml [7] was > 80% and the Activity (Cell membrane [8]) was 95.6%. For the same compound, the Activity (Erythrocyte [9]) was < 10%, the Activity (Cell membrane [10]) was “inactive” and the MIC (Staphylococcus aureus [11]) was 1 µg/mL (≈ 2.04 µM). For the same compound, the MIC (Staphylococcus aureus [12]) was 4 µg/mL (≈ 8.17 µM), the MIC (Staphylococcus aureus [13]) was 4 µg/mL (≈ 8.17 µM) and the MIC (Staphylococcus aureus [14]) was 4 µg/mL (≈ 8.17 µM). For the same compound, the Activity (Staphylococcus aureus [15]) was “Active”, the Activity (Cell membrane [16]) was 22.3% and the MIC (Staphylococcus aureus [17]) was 1 µg/mL (≈ 2.04 µM). The Activity (Staphylococcus aureus [18]) was “Active”, the MIC (Staphylococcus aureus [19]) was 1 µg/mL (≈ 2.04 µM) and the Activity (Erythrocyte [20]) was “Non-Toxic”. For the same compound, the MIC (Staphylococcus aureus [21]) was 2 µg/mL (≈ 4.08 µM), the Activity (Staphylococcus aureus [22]) was 90% and the MBBC (Enterococcus faecalis [23]) was 16 µg/mL. For the same compound, the MIC (Staphylococcus aureus [24]) was 1 µg/mL (≈ 2.04 µM), the MIC (Enterococcus faecalis [25]) was 8 µg/mL (≈ 16.3 µM) and the MIC (Staphylococcus aureus [26]) was 2 µg/mL (≈ 4.08 µM). For the same compound, the Activity (Staphylococcus aureus [27]) was 90%, the Activity [28] was “inactive” and the MBIC (Enterococcus faecium) was 8 µg/mL. For the same compound, the Activity (Cell membrane [29]) was “Active”.
